Data published in US7838672B2, “Use of fused ring-1,2,4-benzotriazine derivatives as herbicides or plant growth regulators for the control of undesired plants or vegetation, compounds and compositions thereof, and processes for their preparation” (Bayer CropScience GmbH, priority 2003, dated 2010).

Tests used:
[1] = system: Galium aparine, Abutilon theophrasti, Alopecurus myosuroides, Avena fatua, Ipomoea purpurea, Echinchloa crus-galli, Solanum nigrum and Cyperus iria; experiment: Pre-emergence effect on weeds (greenhouse pot test, applied to the covering soil); format: in vivo; conditions: application rate of 3 kg or less of active ingredient per hectare, assessed three to four weeks after application vs untreated control
Protocol: Seeds of monocotyledonous and dicotyledonous weeds and/or crops were placed in sandy loam in wood-fibre-pots and covered with soil. The compounds formulated as wettable powders or emulsifiable concentrates were dissolved and diluted with water containing adjuvant and then applied to the surface of the covering soil at different dose rates at an application volume of 600 or 800 litres water per ha. After the treatment, the pots were placed in the greenhouse and kept under good growth conditions for the plants. The herbicidal effect was assessed visually as a percentage figure in comparison with the untreated control three to four weeks after application. 100% Efficacy refers to the complete damage of the assessed plants, 0% efficacy refers to the appearance of the untreated control.

[2] = system: Galium aparine, Abutilon theophrasti, Alopecurus myosuroides, Avena fatua, Ipomoea purpurea, Echinchloa crus-galli, Solanum nigrum and Cyperus iria; experiment: Post-emergence effect on weeds (greenhouse pot test, applied over the top of plants at one-leaf-stage); format: in vivo; conditions: application rate of 3 kg or less of active ingredient per hectare, treated at one-leaf-stage, assessed three to four weeks after application vs untreated control
Protocol: Seeds of monocotyledonous and dicotyledonous weeds and/or crops were placed in sandy loam in wood-fibre-pots covered with soil and grown under good greenhouse conditions. The plants were treated at the one-leaf-stage two to three weeks after sowing. The compounds, formulated as wettable powders or emulsifiable concentrates were dissolved and diluted with water containing adjuvant and then applied over the top of the plants at different dose rates at an application volume of 600 or 800 litres water per ha. After the treatment, the pots were placed in the greenhouse and kept under good growth conditions for the plants. The herbicidal effect was assessed visually as a percentage figure in comparison with the untreated control three to four weeks after application

melting point	Structure (SMILES)	pre-emergence control of harmful weed species (herbicidal effect assessed visually) [1]	post-emergence control of the tested weed species (herbicidal effect assessed visually) [2]
259 to 261 °C	c1ccc2c(c1)nnc1nncn12 [Compound 3, [1,2,4]triazolo[3,4-c][1,2,4]benzotriazine]	very good pre-emergence control	very good post-emergence control
	[O-][n+]1nc2nncn2c2ccc(Br)cc21 [Compound 5, 7-bromo[1,2,4]triazolo[3,4-c][1,2,4]benzotriazine-5-oxide]	very good pre-emergence control	very good post-emergence control
	c1ccc2c(c1)NNc1nncn1-2 [Compound 6, 4,5-dihydro[[1,2,4]triazolo[3,4-c][1,2,4]benzotriazine]	very good pre-emergence control	very good post-emergence control
